Patent publication US8609644B2, “Amino derivatives of androstanes and androstenes as medicaments for cardiovascular disorders” (priority 2006, dated 2013)
Structures can show the parent of a compound that is named as a salt. Where two headings read alike, the source gives them in different places.

Assays:
fresh rat hepatocytes = assay: Metabolism in fresh rat hepatocytes; conditions: for % of compound metabolized after 60 minutes: fresh rat hepatocytes, test item nominal concentration 45 μM
anesthetized guinea-pig = assay: Inotropic effect and lethal dose, slow intravenous infusion (over 90 minutes) in anesthetized guinea-pig; conditions: for ED80 / ED (max) / Emax: Cavia porcellus, iv, 1.5 h; for ED80: read-out: ED80 (inotropic potency, dose increasing +dP/dTmax by 80%); for ED (max): read-out: EDmax (dose inducing maximum positive inotropic effect); for Emax: read-out: Emax % increase in +dP/dTmax; for % decrease from Emax after 20 min from the end of the infusion: duration of the inotropic effect; for Maximum dose infused: maximum dose infused in the survived animals; for Dead/treated / Emax % increase in +dP/dTmax / ED80 (inotropic potency, dose increasing +dP/dTmax by 80%) / EDmax (dose inducing maximum positive inotropic effect): slow i.v. infusion over 90 minutes; for Lethal dose/ED80 (safety ratio): calculated in the died animals; for Emax % increase in +dP/dTmax: maximum increase in contractile force
Na+, K+-ATPase = Na+, K+-ATPase (Canis lupus familiaris, UniProt P50997); assay: biochemical; design: species or system dog
[1] = read-out: Na+, K+-ATPase Inhibition IC50
[2] = dog kidney enzyme, read-out: Na+, K+-ATPase Inhibition IC50

Row | Structure (SMILES) | % of compound metabolized after 60 minutes (fresh rat hepatocytes) [%] | ED80 (anesthetized guinea-pig) [µmol/kg] | ED (max) (anesthetized guinea-pig) [µmol/kg] | Emax (anesthetized guinea-pig) [%] | % decrease from Emax after 20 min from the end of the infusion (anesthetized guinea-pig) [%] | Maximum dose infused (anesthetized guinea-pig) [µmol/kg] | Dead/treated (anesthetized guinea-pig) | IC50 (Na+, K+-ATPase; Na+, K+-ATPase Inhibition IC50) [nM] | other results
1 | C=C1C[C@@H]2[C@H](CC[C@]3(C)C(=O)CC[C@@H]23)[C@@]2(C)CC/C(=N\OCCN)CC12.Cl (stereo partly drawn) [I-ai, (E) 3-(2-Aminoethoxyimino)-6-methyleneandrostan-17-one hydrochloride] | 27 | 1.2 | 2.99 | 235 | 100 | 3.2 | 0/5 | 84 | 
2 | CC12CCC3C(C(=O)CC4CC(=NOCCN)CCC43C)C1CCC2=O (mixture of isomers) [I-br, (E,Z) 3-(2-Aminoethoxyimino)androstane-7,17-dione fumarate] |  | 1.62 | 13.5 | 264 | 100 | 50.4 | 2/5 | 210 | Lethal dose/ED80 (safety ratio) (anesthetized guinea-pig): 32.4
3 | C[C@]12CC[C@@H](/C=C\CCCN)CC1/C(=N/O)C[C@@H]1[C@@H]2CC[C@]2(C)C(=O)CC[C@@H]12.O=C(O)/C=C/C(=O)O (stereo partly drawn) [I-dg, 3α-(5-Aminopent-1-(Z)-enyl)-6-(E)-hydroxyiminoandrostan-17-one fumarate] |  |  |  |  | 29 | 12.9 | 0/3 |  | Emax % increase in +dP/dTmax (anesthetized guinea-pig): 105%; ED80 (inotropic potency, dose increasing +dP/dTmax by 80%) (anesthetized guinea-pig): 8.62 µmol/kg; EDmax (dose inducing maximum positive inotropic effect) (anesthetized guinea-pig): 11.4 µmol/kg; IC50 (Na+, K+-ATPase; [1]): 390 nM
4 | CNCCCON=C1CC[C@@]2(C)[C@H](C1)[C@@H](CO)C[C@@H]1[C@@H]2CC[C@]2(C)C(=O)CC[C@@H]12 (mixture of isomers) [I-cl, (E,Z) 3-(3-N-Methylaminopropoxyimino)-6α-hydroxymethylandrostan-17-one hydrochloride] |  | 1.54 | 8.95 | 263 |  | 42.5 | 2/2 |  | Lethal dose/ED80 (safety ratio) (anesthetized guinea-pig): 27.6; IC50 (Na+, K+-ATPase; [2]): 690 nM
5 | CC12CCC3C(C(=NO)CC4CC(=NOCCN)CCC43C)C1CCC2=O (mixture of isomers) [I-bs, (E,Z)-3-(2-Aminoethoxyimino)-7-(E)-hydroxyiminoandrostane-17-one fumarate] | 15 |  |  |  |  |  |  |  | 
6 | CC1CC2C3CCC(=O)C3(C)CCC2C2(C)CCC(=NOCCN)CC12 (single isomer, unassigned) [I-ba, (E,Z) 3-(2-Aminoethoxyimino)-6α-methylandrostan-17-one hydrochloride] |  | 3.09 | 5.78 | 203 | 100 | 6.3 | 0/3 | 300 | 
7 | CC12CCC3C(CC(CO)C4CC(=NOCCN)CCC43C)C1CCC2=O (single isomer, unassigned) [I-ao, (E,Z) 3-(2-Aminoethoxyimino)-6α-hydroxymethylandrostan-17-one hydrochloride] |  | 1.8 | 7.37 | 166 | 100 | 12.6 | 0/3 |  | IC50 (Na+, K+-ATPase; [2]): 180 nM
8 | CON=C1CC2C3CCC(=O)C3(C)CCC2C2(C)CCC(=NOCCN)CC12 (mixture of isomers) [I-aw, (E,Z)-3-(2-Aminoethoxyimino)-6-(E)-methoxyiminoandrostan-17-one hydrochloride] |  | 2.35 | 5.77 | 183 | 100 | 12.7 | 0/5 |  | IC50 (Na+, K+-ATPase; [2]): 17 nM
9 | C[C@]12CC[C@H]3[C@@H](CC[C@@]4(O)C[C@H](/C=C\CCCN)CC[C@]34C)[C@@H]1CCC2=O [I-dk, 3α-(5-Aminopent-1-(Z)-enyl)-5α-hydroxyandrostane-17-one fumarate] | 12 |  |  |  |  |  |  |  | IC50 (Na+, K+-ATPase; [2]): 690 nM
10 | C[C@]12CC[C@H]3[C@@H](CC[C@@]4(O)CC(=NOCCN)CC[C@]34C)[C@@H]1CCC2=O (mixture of isomers) [I-ad, (E,Z) 3-(2-Aminoethoxyimino)-5α-hydroxyandrostan-17-one fumarate] |  | 5.14 | 22.5 | 202 | 100 | 50.1 | 0/3 | 540 | 
11 | CO/N=C1\C[C@H]2[C@@H]3CCC(=O)[C@@]3(C)CC[C@@H]2[C@@]2(C)CCC(=NOCCN)C[C@]12O (mixture of isomers) [I-bp, (E,Z)-3-(2-Aminoethoxyimino)-5α-hydroxy-6-(E)-methoxyiminoandrostane-17-one fumarate] | 32 |  |  |  |  |  |  | 40 | 
12 | C[C@]12CC[C@H]3[C@@H](C/C(=N\O)[C@@]4(O)CC(=NOCCN)CC[C@]34C)[C@@H]1CCC2=O.O=C(O)/C=C/C(=O)O [I-bo, (E,Z)-3-(2-Aminoethoxyimino)-5α-hydroxy-6-(E)-hydroxyiminoandrostane-17-one fumarate] |  |  |  |  | 82 | 12.5 | 0/3 |  | Emax % increase in +dP/dTmax (anesthetized guinea-pig): 214%; ED80 (inotropic potency, dose increasing +dP/dTmax by 80%) (anesthetized guinea-pig): 1.30 µmol/kg; EDmax (dose inducing maximum positive inotropic effect) (anesthetized guinea-pig): 4.86 µmol/kg; IC50 (Na+, K+-ATPase; [1]): 79 nM
13 | CNCCCON=C1CC[C@@]2(C)C(C1)C(=NOC)C[C@@H]1[C@@H]2CC[C@]2(C)C(=O)CC[C@@H]12.Cl (stereo partly drawn) [I-ci, (E,Z) 3-(3-N-Methylaminopropoxyimino)-6-(E)-methoxyiminoandrostan-17-one hydrochloride] | 41 |  |  |  |  |  |  |  | IC50 (Na+, K+-ATPase; [1]): 330 nM
14 | C[C@]12CC[C@H](OC(=O)CCN)CC1/C(=N/O)C[C@@H]1[C@@H]2CC[C@]2(C)C(=O)CC[C@@H]12.Cl (stereo partly drawn) [I-dm, 3β-(3-Aminopropionyloxy)-6-(E)-hydroxyiminoandrostan-17-one hydrochloride] | 71 |  |  |  |  |  |  |  | 
15 | C=C1C[C@H]2[C@@H]3CCC(=O)[C@@]3(C)CC[C@@H]2[C@@]2(C)CCC(=NOCCN)C[C@]12O (mixture of isomers) [I-bq, (E,Z) 3-(2-Aminoethoxyimino)-5α-hydroxy-6-methylenandrostane-17-one hydrochloride] |  | 5.87 | 15.7 | 173 | 10 | 25.3 | 0/3 | 99 | 
16 | CC12CCC3C(CC(CCO)C4CC(=NOCCN)CCC43C)C1CCC2=O (mixture of isomers) [I-am, (E,Z) 3-(2-Aminoethoxyimino)-6α-(2-hydroxyethyl)androstan-17-one hydrochloride] |  | 2.5 | 17.2 | 238 | 17 | 50.5 | 2/3 |  | Lethal dose/ED80 (safety ratio) (anesthetized guinea-pig): 22.7; IC50 (Na+, K+-ATPase; [2]): 320 nM
17 | C#C[C@H]1C[C@@H]2[C@H](CC[C@]3(C)C(=O)CC[C@@H]23)[C@@]2(C)CCC(=NOCCN)C[C@H]12 (mixture of isomers) [I-bd, (E,Z) 3-(2-Aminoethoxyimino)-6α-ethynylandrostan-17-one hydrochloride] |  | 4.59 | 9.89 | 163 | 16 | 12.8 | 0/3 | 200 | 
18 | C[C@]12CCC(=NOCCN)CC1C(=O)C[C@@H]1[C@@H]2CC[C@]2(C)C(=O)CC[C@@H]12.Cl (mixture of isomers) [compd 22b, (EZ) 3-(2-aminoethoxyimino)androstane-6,17-dione hydrochloride, reference compound] | 95 | 1.82 | 5.74 | 182 | 100 | 32.1 | 7/8 |  | metabolism in fresh rat hepatocytes (in words) (fresh rat hepatocytes; within 60 minutes): almost completely metabolized; Lethal dose/ED80 (safety ratio) (anesthetized guinea-pig): 22.6
19 | C=C1CC2CC(=NOCCN)CCC2(C)C2CCC3(C)C(=O)CCC3C12 (mixture of isomers) [I-bx, (E,Z) 3-(2-Aminoethoxyimino)-7-methyleneandrostane-17-one hydrochloride] |  |  |  |  |  |  |  | 400 | 
20 | C=C1C[C@@H]2[C@H](CC[C@]3(C)C(=O)CC[C@@H]23)[C@@]2(C)CC[C@@H]([S@@+]([O-])CCCN)CC12 (stereo partly drawn) [I-eb, 3α-[(S)-3-Aminopropylsulfinyl]-6-methyleneandrostane-17-one fumarate] |  |  |  |  |  |  |  |  | IC50 (Na+, K+-ATPase; [1]): 7200 nM
21 | CNCCCON=C1CCC2(C)C(C1)C(NC=O)CC1C3CCC(=O)C3(C)CCC12 (mixture of isomers) [I-co, (E,Z) 3-(3-N-Methylaminopropoxyimino)-6α-formamidoandrostan-17-one hydrochloride] |  | 0.93 | 2.79 | 177 |  | 44.1 | 2/2 |  | Lethal dose/ED80 (safety ratio) (anesthetized guinea-pig): 47.4; IC50 (Na+, K+-ATPase; [2]): 1100 nM
22 | CC12CCC3C(C(=C(F)F)CC4CC(=NOCCN)CCC43C)C1CCC2=O (mixture of isomers) [I-ep, (E,Z) 3-(2-Aminoethoxyimino)-7-difluoromethyleneandrostane-17-one hydrochloride] |  |  |  |  |  |  |  | 87 | 
